# Measured values: patent publication US8138168B1 (Takeda Pharmaceutical Company Limited, priority 2007, dated 2012)
# Molecular target: T1, Recombinant human renin (Homo sapiens, UniProt P00797)
# T1 construct: isolate the active form (residues 67-406); made in house; host or cells: FreeStyle 293-F cells (transient expression of pcDNA3.1(+)/hREN)
# T1 sequence (P00797 67-406): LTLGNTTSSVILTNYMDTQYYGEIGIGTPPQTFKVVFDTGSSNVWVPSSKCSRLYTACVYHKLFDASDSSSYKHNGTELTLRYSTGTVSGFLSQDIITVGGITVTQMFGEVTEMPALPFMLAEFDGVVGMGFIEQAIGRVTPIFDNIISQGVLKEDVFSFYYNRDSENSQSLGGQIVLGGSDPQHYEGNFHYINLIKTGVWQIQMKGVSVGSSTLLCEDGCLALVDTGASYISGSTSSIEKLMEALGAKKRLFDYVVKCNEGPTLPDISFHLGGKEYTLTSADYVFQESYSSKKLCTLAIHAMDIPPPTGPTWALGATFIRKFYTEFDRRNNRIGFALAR
# Assay: In vitro enzymatic activity assay of renin inhibitors (fluorogenic peptide substrate)
# Format: biochemical
# Conditions: not given
# In short: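 Recombinant human renin (3 nM final) pre-incubated 10 min at 37 °C with compounds in pH 7.4 Hepes/EDTA/DTT/0.1 mg/mL BSA/Brij35 buffer (optionally plus 2% BSA), 5% DMSO final; fluorogenic QXL520/HiLyteFluo488 peptide substrate added.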
row,IC50,Compound
1,< 0.1 µM,"COCCCn1c([C@@H]2CCCN(C(=O)C[C@H](N)CNC(=O)Nc3ccccc3Cl)C2)nc2ccccc21 [Compound 257, 1-((S)-2-amino-4-((R)-3-(1-(3-methoxypropyl)-1H-benzo[d]imidazol-2-yl)piperidin-1-yl)-4-oxobutyl)-3-(2-chlorophenyl)urea]"

# Same assay, conditions: read-out: IC50 of Exemplified Compounds Against Renin
row,IC50,Compound
1,< 0.1 µM,"COCCCn1c([C@@H]2CCCN(C(=O)C[C@H](N)Cc3ccc(-c4ccc(NC(=O)NC5CC5)cc4)cc3)C2)nc2ccccc21 [Compound 171, 1-(4′-((R)-2-Amino-4-((R)-3-(1-(3-methoxypropyl)-1H-benzo[d]imidazol-2-yl)piperidin-1-yl)-4-oxobutyl)biphenyl-4-yl)-3-cyclopropylurea]"
2,> 1 µM,"O=C([C@@H]1CCCN1C1CCNCC1)N1CCCC(c2nc3ccccc3[nH]2)C1 (stereo partly drawn) [Compound 49, (3-(1H-benzo[d]imidazol-2-yl)piperidin-1-yl)((S)-1-(piperidin-4-yl)pyrrolidin-2-yl)methanone]"
3,< 0.1 µM,"COCCCn1c([C@@H]2CCCN(C(=O)C[C@H](N)Cc3ccc(-c4ccc(C(=O)NCCO)nc4)cc3)C2)nc2ccccc21 [Compound 194, 5-(4-((R)-2-Amino-4-((R)-3-(1-(3-methoxypropyl)-1H-benzo[d]imidazol-2-yl)piperidin-1-yl)-4-oxobutyl)phenyl)-N-(2-hydroxyethyl)picolinamide]"
4,< 0.1 µM,"COCCCn1c([C@@H]2CCCN(C(=O)C[C@H](N)Cc3ccc(-c4ccc(N)nc4)cc3)C2)nc2ccccc21 [Compound 136, (R)-3-amino-4-(4-(6-aminopyridin-3-yl)phenyl)-1-((R)-3-(1-(3-methoxypropyl)-1H-benzo[d]imidazol-2-yl)piperidin-1-yl)butan-1-one]"
5,> 1 µM,"NC(=O)CCn1c([C@@H]2CCCN(C(=O)C[C@H](N)Cc3ccc(-c4ccccc4)cc3)C2)nc2ccccc21 [Compound 485, 3-(2-((R)-1-((R)-3-amino-4-(biphenyl-4-yl)butanoyl)piperidin-3-yl)-1H-benzo[d]imidazol-1-yl)propanamide]"
6,0.1 to 1 µM,"CC(=O)NCCn1c([C@@H]2CCCN(C(=O)C[C@H](N)Cc3ccc(-c4ccc5c(c4)NC(=O)C5)cc3)C2)nc2ccccc21 [Compound 466, N-(2-(2-((R)-1-((R)-3-amino-4-(4-(2-oxoindolin-6-yl)phenyl)butanoyl)piperidin-3-yl)-1H-benzo[d]imidazol-1-yl)ethyl)acetamide]"
7,0.1 to 1 µM,"COCCCn1c([C@@H]2CCCN(C(=O)C[C@H](N)CNC(=O)c3ccc(-c4ccccc4)cc3)C2)nc2ccccc21 [Compound 264, N-((S)-2-amino-4-((R)-3-(1-(3-methoxypropyl)-1H-benzo[d]imidazol-2-yl)piperidin-1-yl)-4-oxobutyl)biphenyl-4-carboxamide]"
8,< 0.1 µM,"CCOc1nc(-c2ccc(C[C@@H](N)CC(=O)N3CCC[C@@H](c4nc5ccccc5n4CCCOC)C3)cc2)cs1 [Compound 200, (R)-3-amino-4-(4-(2-ethoxythiazol-4-yl)phenyl)-1-((R)-3-(1-(3-methoxypropyl)-1H-benzo[d]imidazol-2-yl)piperidin-1-yl)butan-1-one]"
9,> 1 µM,"NC1(C(=O)N2CCCC(c3nc4ccccc4[nH]3)C2)CC1 (stereo not drawn) [Compound 63, (3-(1H-benzo[d]imidazol-2-yl)piperidin-1-yl)(1-aminocyclopropyl)methanone]"
10,0.1 to 1 µM,"COCCCn1c([C@@H]2CCCN(C(=O)C[C@H](N)Cc3ccc4ccccc4c3)C2)nc2ccc(F)cc21 [Compound 95, (R)-3-amino-1((R)-3-(6-fluoro-1-(3-methoxypropyl)-1H-benzo[d]imidazol-2-yl)piperidin-1-yl)-4-(naphthalen-2-yl)butan-1-one]"
11,0.1 to 1 µM,"COCCCn1c([C@@H]2CCCN(C(=O)C[C@H](N)Cc3ccc4ccccc4c3)C2)nc2cc([N+](=O)[O-])ccc21 [Compound 115, (R)-3-arni no-1-((R)-3-(1-(3-methoxypropyl)-5-nitro-1H-benzo[d]imidazol-2-yl)piperidin-1-yl)-4-(naphthalen-2-yl)butan-1-one]"
12,0.1 to 1 µM,"COCCCn1c([C@@H]2CCCN(C(=O)C[C@H](N)CNC(=O)c3ccc(-c4cccc(Cl)c4Cl)o3)C2)nc2ccccc21 [Compound 277, N-((S)-2-amino-4-((R)-3-(1-(3-methoxypropyl)-1H-benzo[d]imidazol-2-yl)piperidin-1-yl)-4-oxobutyl)-5-(2,3-dichlorophenyl)furan-2-carboxamide]"
13,< 0.1 µM,"COCCCn1c([C@@H]2CCCN(C(=O)C[C@H](N)Cc3ccc(-c4ccc(C(=O)N5CCNC(=O)C5)cc4)cc3)C2)nc2ccccc21 [Compound 189, 4-(4′-((R)-2-amino-4-((R)-3-(1-(3-methoxypropyl)-1H-benzo[d]imidazol-2-yl)piperidin-1-yl)-4-oxobutyl)biphenylcarbonyl)piperazin-2-one]"
14,> 1 µM,"COCCCn1c([C@@H]2CCCN(C(=O)[C@@H]3CN(C(=O)Nc4ccc(Cl)cc4)C[C@H]3N)C2)nc2ccccc21 [Compound 388, (3S,4R)-3-amino-N-(4-chlorophenyl)-4-((R)-3-(1-(3-methoxypropyl)-1H-benzo[d]imidazol-2-yl)piperidine-l-carbonyl)pyrrolidine-1-carboxamide]"
15,0.1 to 1 µM,"CNC(=O)CCn1c([C@@H]2CCCN(C(=O)C[C@H](N)Cc3ccc(-c4ccc5c(c4)CCO5)cc3)C2)nc2c(C)cccc21 [Compound 501, 3-(2-((R)-1-((R)-3-amino-4-(4-(2,3-dihydrobenzofuran-5-yl)phenyl)butanoyl)piperidin-3-yl)-4-methyl-1H-benzo[d]imidazol-1-yl)-N-methylpropanamide]"
16,< 0.1 µM,"COCCCn1c([C@@H]2CCCN(C(=O)C[C@H](N)Cc3ccc(-c4ccc(C(=O)NCCOC)cc4Cl)cc3)C2)nc2ccccc21 [Compound 193, 4′-((R)-2-amino-4-((R)-3-(1-(3-methoxypropyl)-1H-benzo[d]imidazol-2-yl)piperidin-1-yl)-4-oxobutyl)-2-chloro-N-(2-methoxyethyl)biphenyl-4-carboxamide]"
17,< 0.1 µM,"COCCCn1c([C@@H]2CCCN(C(=O)C[C@H](N)Cc3ccc(-c4ccc(C(=O)NC(C)(C)CO)cc4)cc3)C2)nc2ccccc21 [Compound 183, 4′-((R)-2-amino-4-((R)-3-(1-(3-methoxypropyl)-1H-benzo[d]imidazol-2-yl)piperidin-1-yl)-4-oxobutyl)-N-(1-hydroxy-2-methylpropan-2-yl)biphenyl-4-carboxamide]"
18,0.1 to 1 µM,"COCCCn1c([C@@H]2CCCN(C(=O)C[C@H](N)Cc3ccc4ccccc4c3)C2)nc2ccc(C(C)C)cc21 [Compound 116, (R)-3-amino-1-((R)-3-(6-isopropyl-1-(3-methoxypropyl)-1H-benzo[d]imidazol-2-yl)piperidin-1-yl)-4-(naphthalen-2-yl)butan-1-one]"
19,> 1 µM,"NC1(C(=O)N2CCCC(c3nc4ccccc4[nH]3)C2)CCC1 (stereo not drawn) [Compound 59, (3-(1H-benzo[d]imidazol-2-yl)piperidin-1-yl)(1-aminocyclobutyl)methanone]"
20,0.1 to 1 µM,"COCCCn1c([C@@H]2CCCN(C(=O)C[C@H](N)CNS(=O)(=O)c3ccc(Cl)c(Cl)c3)C2)nc2ccccc21 [Compound 305, N-((S)-2-amino-4-((R)-3-(1-(3-methoxypropyl)-1H-benzo[d]imidazol-2-yl)piperidin-1-yl)-4-oxobutyl)-3,4-dichlorobenzenesulfonamide]"
21,0.1 to 1 µM,"COCCCn1c([C@@H]2CCCN(C(=O)[C@@H]3CN(C(=O)c4cccc(Oc5ccccc5)c4)C[C@H]3N)C2)nc2ccccc21 [Compound 358, ((3R,4S)-4-amino-1-(3-phenoxybenzoyl)pyrrolidin-3-yl)((R)-3-(1-(3-methoxypropy1)-1H-benzo[d]imidazol-2-yl)piperidin-1-yl)methanone]"
22,0.1 to 1 µM,"COCCCn1c([C@@H]2CCCN(C(=O)C[C@H](N)Cc3ccccc3)C2)nc2ccccc21 [Compound 87, (R)-3-amino-1((R)-3-(1-(3-methoxypropyl)-1H-benzo[d]imidazol-2-yl)piperidin-yl)-4-phenylbutan-1-one]"
23,0.1 to 1 µM,"COCCCn1c([C@@H]2CCCN(C(=O)[C@@H]3CN(S(=O)(=O)C(C)C)C[C@H]3N)C2)nc2ccccc21 [Compound 371, ((3R,4S)-4-amino-1-(isopropylsulfonyl)pyrrolidin-3-yl)((R)-3-(1-(3-methoxypropyl)-1H-benzo[d]imidazol-2-yl)piperidin-1-yl)methanone]"
24,0.1 to 1 µM,"COCCCn1c([C@@H]2CCCN(C(=O)C[C@H](N)CNC(=O)c3ccc(-c4cccc(Cl)c4)o3)C2)nc2ccccc21 [Compound 296, N-((S)-2-amino-4-((R)-3-(1-(3-methoxypropyl)-1H-benzo[d]imidazol-2-yl)piperidin-1-yl)-4-oxobutyl)-5-(3-chlorophenyl)furan-2-carboxamide]"
25,> 1 µM,"COCCCn1c([C@@H]2CCCN(C(=O)C[C@H](N)c3ccccc3)C2)nc2ccccc21 [Compound 89, (S)-3-amino-1((R)-3-(1-(3-methoxypropyl)-1H-benzo[d]imidazol-2-yl)piperidin-1-yl)-3-phenylpropan-1-one]"
26,> 1 µM,"Cc1ccc(NC(=O)N2CCCC(c3nc4ccccc4[nH]3)C2)cc1Cl (stereo not drawn) [Compound 1, 3-(1H-Benzo[d]imidazol-2-yl)-N-(3-chloro-4-methylphenyl)piperidine-1-carboxamide]"
